For one experiment, the target named is T1, apTKRPR-B (Aplysia californica, UniProt A0AAU7STS1).
T1 sequence (A0AAU7STS1 1-447): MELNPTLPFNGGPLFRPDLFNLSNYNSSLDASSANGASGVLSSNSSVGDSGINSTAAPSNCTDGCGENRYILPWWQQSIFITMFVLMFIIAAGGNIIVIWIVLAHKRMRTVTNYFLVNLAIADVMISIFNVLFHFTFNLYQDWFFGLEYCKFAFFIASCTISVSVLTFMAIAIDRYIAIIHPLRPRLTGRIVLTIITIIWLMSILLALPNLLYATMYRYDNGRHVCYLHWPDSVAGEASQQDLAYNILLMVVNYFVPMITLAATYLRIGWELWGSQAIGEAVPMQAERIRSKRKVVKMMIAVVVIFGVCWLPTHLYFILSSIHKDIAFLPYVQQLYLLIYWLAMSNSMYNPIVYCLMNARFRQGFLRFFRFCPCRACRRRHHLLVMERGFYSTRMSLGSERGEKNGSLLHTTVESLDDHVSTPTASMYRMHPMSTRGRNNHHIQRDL
The experiment can be described thus: Receptor desensitization assay, protocol 1 (prolonged agonist exposure), apTKRPR-B. The experiment is classed as cell-based. The conditions noted are these: 10 μM, 2, 5, 10, 15, 30 and 60 min at 37 °C; fold increase over basal; n = 3. As for the experimental part: Therefore, we adopted two protocols to study the desensitization of apTKRPRs. The protocols were performed using a procedure modified from previous work ([87], [88], [89]).
Protocol 1 ([87], [88]): Under continuous (prolonged) stimulation with an agonist, we examined agonist-induced desensitization by quantifying the rate of IP1 accumulation. Specifically, CHO-K1 cells transiently expressing pcDNA3.1-apTKRPRs were incubated in the absence or presence of 10 μM (saturating concentration) apTKRP-2b for the different duration (2, 5, 10, 15, 30, and 60 min) at 37 °C, and intracellular concentrations of IP1 accumulation were measured. Data are presented as fold increase over basal IP1 concentration (Fig. S10).

The target of another experiment is apTKRPR-B T391 (Aplysia californica, UniProt A0AAU7STS1, DEL392-447). The experiment can be described thus: Cell surface expression by ELISA after ligand exposure, truncated apTKRPR-B T391. The format is cell-based. The conditions noted are these: 10 µM, 60 min, n = 5. The procedure:
Cell surface expression determination of apTKRPRs and mutant receptors, all with FLAG tags, was performed using a procedure modified from previous work ([64], [122], [123], [124]). Specifically, CHO-K1 cells were cultured in F-12K medium (Gibco, 21127-022) with 10% FBS (Genial, G11-70500) at 37 °C in a humidified incubator containing 5% CO2. When the cells were grown to 70 to 90% confluence, transfection experiments were performed (see “Cell culture and transfection” section). After 24 h, transfected cells were plated in 96-well white clear-bottom cell culture plates (Corning, 3610) at a density of 20,000 cells in 100 μl per well and incubated overnight. The following day, culture media was aspirated and cells were washed twice with 200 μl of 1× PBS (Procell, PB180327). Then, 100 μl of 1× PBS containing 5% (w/v) BSA was added to each well and incubated at room temperature. After 30 min, 100 μl of 1:10,000 anti-FLAG M2-horseradish peroxidase conjugate (Sigma-Aldrich, Cat A8592) was added to each well and incubated for 30 min at 37 °C. Cells were washed twice with 200 μl of 1× PBS and then incubated with 200 μl of TMB Chromogen Solution (Sangon Biotech, E661007) for 30 min at 37 °C in the dark. Finally, 50 μl of ELISA Stopping Solution (Sangon Biotech, E661006) was added to each well to stop the reaction. The absorbance at 450 nm was measured using a Tecan Spark microplate reader. […]

Non-standard residues stand in square brackets, D forms with d. Residues, ends and D or L forms follow the SMILES beside them. pGlu = O=C1CC[C@@H](C(=O)O)N1

For `CC(C)C[C@H](NC(=O)[C@H](Cc1c[nH]cn1)NC(=O)[C@@H]1CCCN1C(=O)[C@@H]1CCC(=O)N1)C(=O)NCC(=O)N[C@@H](Cc1ccccc1)C(=O)N[C@@H](Cc1c[nH]cn1)C(=O)NCC(=O)N[C@@H](CO)C(=O)N[C@@H](CCCNC(=N)N)C(N)=O` [apTKRP-2b] ([pGlu]PHLGFHGSR-NH2), on apTKRPR-B, the “time course of IP1 accumulation, apTKRPR-B (protocol 1)” value is “initially increased and then reached a plateau”. In addition, the “cell surface receptor expression of T391 after agonist exposure” value at apTKRPR-B T391 is reported as “did not change significantly”.
